For orientation: IC50 means the concentration needed to halve the response being measured. Broadly, the half-life is how long it takes for the measured level to halve. The term bioavailability denotes the share of a dose that reaches the circulation, judged against a reference dose that is usually intravenous.

The target of data set [1] is T1, Integrin alpha-4/beta-1 (Homo sapiens, UniProt P05556+P13612). The data set can be described thus: Dissociation from Very late antigen 4 (VLA-4). It is filed as protein-complex assay.
In data set [2] the target is T1, Integrin alpha-4/beta-1. The data set can be described thus: Inhibition of [125I]VCAM-Ig binding to VLA-4 of Jurkat cells in the presence of [Ca2+]. The class given is cell-based.
Data set [3] deals with T1, Integrin alpha-4/beta-1. The data set can be described thus: Inhibition of [125I]VCAM-Ig binding to VLA-4 of Jurkat cells in the presence of Mn2+. It is filed as cell-based.
Data set [4] concerns the target T1, Integrin alpha-4/beta-1. The data set can be described thus: Inhibition of VLA-4 binding in Jurkat cells in the presence of Mg2+. It is filed as cell-based.
A short description of data set [5]: Half life period was determined in rhesus monkey at a dose of 1 mg/kg by iv administration. The class given is ADME, organism-based. Also noted: dose 1 mg/kg, route intravenous. The conditions noted are these: cercopithecidae, in vivo.
The subject of another data set is Rattus norvegicus. The data set can be described thus: Unbound plasma was determined in Sprague-Dawley rats at a dose of 1 mg/kg by iv administration. It is filed as ADME, organism-based. On the set-up: dose 1 mg/kg, route intravenous. The note with it: in vivo.
The next data set has as its system Canis familiaris. In words: Unbound plasma was determined in Beagle dog at a dose of 1 mg/kg by iv administration. The class given is ADME, organism-based, Canis lupus familiaris. On the set-up: dose 1 mg/kg, route intravenous. The note with it: in vivo.
Data set [6] in a line: Oral bioavailability in rhesus monkey at a dose of 2 mg/kg by po administration. It is filed as ADME, organism-based, Macaca mulatta. The conditions noted are these: in vivo.
Data set [7] is described as follows: Plasma clearance was determined in rhesus monkey at a dose of 1 mg/kg by iv administration. The note with it: cercopithecidae, read-out: Clp. Also noted: dose 1 mg/kg, route intravenous. The class given is ADME, organism-based.
Data set [8] in a line: Unbound plasma was determined in rhesus monkey at a dose of 1 mg/kg by iv administration. The class given is ADME, organism-based. Also noted: dose 1 mg/kg, route intravenous. The conditions noted are these: cercopithecidae, in vivo.
Data set [9] can be described thus: Oral bioavailability in Sprague-Dawley rats at a dose of 2 mg/kg by po administration. The class given is ADME, organism-based. The conditions noted are these: rat, in vivo.
Data set [10] can be described thus: Oral bioavailability in Beagle dog at a dose of 2 mg/kg by po administration. The class given is ADME, organism-based, Canis lupus familiaris. The conditions noted are these: in vivo.
A short description of data set [11]: Plasma clearance was determined in Beagle dog at a dose of 1 mg/kg by iv administration. The conditions noted are these: read-out: Clp. On the set-up: dose 1 mg/kg, route intravenous. It is filed as ADME, organism-based, Canis lupus familiaris.
Data set [12] in a line: Half life period was determined in Beagle dog at a dose of 1 mg/kg by iv administration. The conditions noted are these: in vivo. It is filed as ADME, organism-based, Canis lupus familiaris. Also noted: dose 1 mg/kg, route intravenous.
Data set [13] can be described thus: Half life period was determined in Sprague-Dawley rats at a dose of 1 mg/kg by iv administration. It is filed as ADME, organism-based. On the set-up: dose 1 mg/kg, route intravenous. The note with it: rat, in vivo.
Data set [14] is described as follows: Plasma clearance was determined in Sprague-Dawley rats at a dose of 1 mg/kg by iv administration. The class given is ADME, organism-based. On the set-up: dose 1 mg/kg, route intravenous. The note with it: rat, read-out: Clp.

T1 sequence (P05556 whole entry): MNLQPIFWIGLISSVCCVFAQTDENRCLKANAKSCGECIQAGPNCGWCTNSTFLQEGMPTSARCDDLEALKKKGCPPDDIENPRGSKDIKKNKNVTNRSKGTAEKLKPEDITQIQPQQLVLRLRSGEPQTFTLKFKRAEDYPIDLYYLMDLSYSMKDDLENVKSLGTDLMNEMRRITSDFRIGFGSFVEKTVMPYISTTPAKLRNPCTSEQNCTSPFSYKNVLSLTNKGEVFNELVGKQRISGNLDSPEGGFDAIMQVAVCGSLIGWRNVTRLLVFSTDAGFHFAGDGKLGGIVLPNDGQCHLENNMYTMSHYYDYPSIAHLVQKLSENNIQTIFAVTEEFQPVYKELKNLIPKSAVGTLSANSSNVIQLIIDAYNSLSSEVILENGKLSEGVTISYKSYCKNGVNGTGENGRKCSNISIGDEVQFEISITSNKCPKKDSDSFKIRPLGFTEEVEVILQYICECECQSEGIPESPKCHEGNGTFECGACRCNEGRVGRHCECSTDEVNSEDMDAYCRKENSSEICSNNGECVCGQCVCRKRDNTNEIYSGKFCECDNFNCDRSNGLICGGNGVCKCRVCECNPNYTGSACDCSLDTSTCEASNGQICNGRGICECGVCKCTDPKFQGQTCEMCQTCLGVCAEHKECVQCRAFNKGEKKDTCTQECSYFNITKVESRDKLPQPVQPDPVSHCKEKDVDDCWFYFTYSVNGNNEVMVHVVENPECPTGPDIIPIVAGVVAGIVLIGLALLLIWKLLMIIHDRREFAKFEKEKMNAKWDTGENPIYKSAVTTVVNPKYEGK
T1 sequence (P13612 whole entry): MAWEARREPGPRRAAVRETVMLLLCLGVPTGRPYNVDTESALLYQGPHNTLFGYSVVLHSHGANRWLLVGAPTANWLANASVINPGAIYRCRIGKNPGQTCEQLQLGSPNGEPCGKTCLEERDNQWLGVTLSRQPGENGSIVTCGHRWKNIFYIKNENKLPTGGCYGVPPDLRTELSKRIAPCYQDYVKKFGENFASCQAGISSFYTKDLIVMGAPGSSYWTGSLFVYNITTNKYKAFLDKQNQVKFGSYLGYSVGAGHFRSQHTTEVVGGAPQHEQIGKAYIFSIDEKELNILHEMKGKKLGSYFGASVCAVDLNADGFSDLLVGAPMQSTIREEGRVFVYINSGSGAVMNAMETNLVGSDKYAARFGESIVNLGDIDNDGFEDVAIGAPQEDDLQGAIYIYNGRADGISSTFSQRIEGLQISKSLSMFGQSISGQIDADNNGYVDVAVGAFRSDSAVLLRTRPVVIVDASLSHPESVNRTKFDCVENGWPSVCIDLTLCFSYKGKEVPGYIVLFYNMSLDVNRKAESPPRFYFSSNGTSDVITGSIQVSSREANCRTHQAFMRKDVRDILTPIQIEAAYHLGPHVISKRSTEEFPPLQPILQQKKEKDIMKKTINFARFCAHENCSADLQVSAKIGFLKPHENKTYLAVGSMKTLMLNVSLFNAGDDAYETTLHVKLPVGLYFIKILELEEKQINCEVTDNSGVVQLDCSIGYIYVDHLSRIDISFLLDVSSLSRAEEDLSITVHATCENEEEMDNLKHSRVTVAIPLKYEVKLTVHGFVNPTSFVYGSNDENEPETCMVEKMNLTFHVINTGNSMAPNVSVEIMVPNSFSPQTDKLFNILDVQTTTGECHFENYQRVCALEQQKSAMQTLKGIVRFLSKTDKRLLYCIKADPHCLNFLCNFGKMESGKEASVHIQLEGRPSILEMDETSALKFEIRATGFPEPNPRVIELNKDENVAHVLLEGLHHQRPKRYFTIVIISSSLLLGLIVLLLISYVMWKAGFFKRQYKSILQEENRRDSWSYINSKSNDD

`CSc1cnccc1C(=O)Nc1ccc(C[C@H](NC(=O)[C@]2(C)CCCN2S(=O)(=O)c2cc(Cl)cc(Cl)c2)C(=O)O)cc1` returned a Bound at Integrin alpha-4/beta-1 [1] of 0%. The IC50 on Integrin alpha-4/beta-1 [2] came out at 1.56 nM; at Integrin alpha-4/beta-1 [3], 0.36 nM; on Integrin alpha-4/beta-1 [4] it was 1.56 nM.
On Integrin alpha-4/beta-1 [1], `O=C(Nc1ccc(C[C@H](NC(=O)[C@@H]2CCCN2S(=O)(=O)c2ccccc2)C(=O)O)cc1)c1c(Cl)cncc1Cl` yielded a Bound of 19%. Also, the IC50 was 0.13 nM on Integrin alpha-4/beta-1 [2], 0.15 nM at Integrin alpha-4/beta-1 [3] and 0.13 nM at Integrin alpha-4/beta-1 [4].
On to `O=C(Nc1ccc(C[C@H](NC(=O)[C@@H]2CCCN2S(=O)(=O)c2cc(Cl)cc(Cl)c2)C(=O)O)cc1)c1c(Cl)cncc1Cl`, for which the Bound on Integrin alpha-4/beta-1 [1] amounted to 62%. Moreover, the IC50 is 0.07 nM on Integrin alpha-4/beta-1 [2], 0.1 nM at Integrin alpha-4/beta-1 [3] and 0.07 nM at Integrin alpha-4/beta-1 [4].
At Integrin alpha-4/beta-1 [1], `C[C@@]1(C(=O)N[C@@H](Cc2ccc(NC(=O)c3c(Cl)cccc3Cl)cc2)C(=O)O)CCCN1S(=O)(=O)c1cc(Cl)cc(Cl)c1` gave a Bound of 15%. Moreover, the results for the IC50 on Integrin alpha-4/beta-1 [2], on Integrin alpha-4/beta-1 [3] and at Integrin alpha-4/beta-1 [4] were 0.15 nM, 0.21 nM and 0.15 nM, respectively.
With `C[C@@]1(C(=O)N[C@@H](Cc2ccc(NC(=O)C3=C(Cl)CC(=O)N=C3Cl)cc2)C(=O)O)CCCN1S(=O)(=O)c1cc(Cl)cc(Cl)c1`, at Integrin alpha-4/beta-1 [1], the Bound came to 61%. For the same molecule, the figures for the IC50 on Integrin alpha-4/beta-1 [2], at Integrin alpha-4/beta-1 [3] and on Integrin alpha-4/beta-1 [4] were 0.08 nM, 0.1 nM and 0.08 nM, respectively.
As to `COc1cc(CN2CCCC2)cc(OC)c1-c1ccc(C[C@H](NC(=O)[C@]2(C)CCCN2S(=O)(=O)c2cc(Cl)cc(Cl)c2)C(=O)O)cc1`, on Integrin alpha-4/beta-1 [1], the Bound worked out at 43%. Further, the IC50 on Integrin alpha-4/beta-1 [2] worked out at 0.09 nM; at Integrin alpha-4/beta-1 [3], 0.1 nM; at Integrin alpha-4/beta-1 [4] it was 0.09 nM.
Take `COc1ccnc(Cl)c1C(=O)Nc1ccc(C[C@H](NC(=O)[C@]2(C)CCCN2S(=O)(=O)c2cc(Cl)cc(Cl)c2)C(=O)O)cc1`: the Bound on Integrin alpha-4/beta-1 [1] is 40%. The IC50 at Integrin alpha-4/beta-1 [2] stood at 0.08 nM; at Integrin alpha-4/beta-1 [3] it was 0.13 nM; on Integrin alpha-4/beta-1 [4], 0.08 nM.
On Integrin alpha-4/beta-1 [1], `C[C@@]1(C(=O)N[C@@H](Cc2ccc(NC(=O)c3cnccc3Cl)cc2)C(=O)O)CCCN1S(=O)(=O)c1cc(Cl)cc(Cl)c1` gave a Bound of 26%. Also, the results for the IC50 at Integrin alpha-4/beta-1 [2], on Integrin alpha-4/beta-1 [3] and at Integrin alpha-4/beta-1 [4] were 0.21 nM, 0.14 nM and 0.21 nM, respectively.
At Integrin alpha-4/beta-1 [1], `C[n+]1ccc(C(=O)Nc2ccc(C[C@H](NC(=O)[C@]3(C)CCCN3S(=O)(=O)c3cc(Cl)cc(Cl)c3)C(=O)O)cc2)c(Cl)c1` showed a Bound of 0%. Besides, the half-inhibitory concentration (IC50) at Integrin alpha-4/beta-1 [2] was found to be 0.31 nM; on Integrin alpha-4/beta-1 [3] it was 0.16 nM; on Integrin alpha-4/beta-1 [4], 0.31 nM.
On Integrin alpha-4/beta-1 [1], `C[C@@]1(C(=O)N[C@@H](Cc2ccc(NC(=O)c3cccnc3)cc2)C(=O)O)CCCN1S(=O)(=O)c1cc(Cl)cc(Cl)c1` registered a Bound of 12%. For the same molecule, the IC50 on Integrin alpha-4/beta-1 [2] is 0.25 nM; at Integrin alpha-4/beta-1 [3], 0.27 nM; on Integrin alpha-4/beta-1 [4], 0.25 nM.
For the molecule `C[n+]1cc(Cl)c(C(=O)Nc2ccc(C[C@H](NC(=O)[C@]3(C)CCCN3S(=O)(=O)c3cc(Cl)cc(Cl)c3)C(=O)O)cc2)c(Cl)c1`, the Bound at Integrin alpha-4/beta-1 [1] was 61%. The IC50 on Integrin alpha-4/beta-1 [2] was determined as 0.1 nM; at Integrin alpha-4/beta-1 [3], 0.19 nM; at Integrin alpha-4/beta-1 [4], 0.1 nM.
For `C[C@@]1(C(=O)N[C@@H](Cc2ccc(NC(=O)c3c(Cl)ccnc3Cl)cc2)C(=O)O)CCCN1S(=O)(=O)c1cc(Cl)cc(Cl)c1`, the half-life in data set [5] was 2.3 h; in [12] it was 0.73 h; in data set [13], 1.7 h. For the same molecule, the Unbound plasma is given as 0.2% with Rattus norvegicus, 2.2% in the data set with Canis familiaris and 0.15% in [8]. The bioavailability was determined as 4% in [6], 1.6% in data set [9] and 0.4% in data set [10]. Further, the clearance was 7.5 mL/min/kg in data set [7], 32 mL/min/kg in data set [11] and 1.9 mL/min/kg in [14]. Besides, the Bound on Integrin alpha-4/beta-1 [1] worked out at 57%. Besides, the IC50 on Integrin alpha-4/beta-1 [2], on Integrin alpha-4/beta-1 [3] and on Integrin alpha-4/beta-1 [4] was 0.11 nM each time.
Molecule `O=C(Nc1ccc(C[C@H](NC(=O)[C@@H]2CCCN2S(=O)(=O)c2cccc(Cl)c2)C(=O)O)cc1)c1c(Cl)cncc1Cl` displayed a Bound on Integrin alpha-4/beta-1 [1] of 37%. In addition, the figures for the half-inhibitory concentration (IC50) on Integrin alpha-4/beta-1 [2], at Integrin alpha-4/beta-1 [3] and on Integrin alpha-4/beta-1 [4] were 0.1 nM, 0.09 nM and 0.1 nM, respectively.
Turning to `COc1cccc(OC)c1-c1ccc(C[C@H](NC(=O)[C@]2(C)CCCN2S(=O)(=O)c2cc(Cl)cc(Cl)c2)C(=O)O)cc1`, the Bound on Integrin alpha-4/beta-1 [1] turned out to be 1%. Moreover, the IC50 at Integrin alpha-4/beta-1 [2] and at Integrin alpha-4/beta-1 [4] was 0.09 nM each time.

The values are drawn from ChEMBL document CHEMBL1145733, “N-isonicotinoyl-(L)-4-aminophenylalanine derivatives as tight binding VLA-4 antagonists” (Bioorg Med Chem Lett, 2003).
